The record followed here is a melting point compilation (Tetko et al.; mined from patent text by program, amines drawn as free bases though some values may be those of a salt).

SMILES strings stand for the structures.

Regarding `Cc1ccc(S(=O)(=O)OCC2CC(=O)N(Cc3ccccc3)C2c2c(Cl)cccc2Cl)cc1` (stereo not drawn), the melting point (usually the temperature, or range, at which the solid turns liquid) is 110 to 114 °C.

As for `O=S(=O)(CCCCl)Nc1cccc(OCc2ccc3ccccc3n2)c1`, the melting point is 116 to 117 °C.

`COc1cccc(C23CCCC=C2C(=O)N(CC2CCC2)C(=O)C3)c1` (stereo not drawn): the melting point was in the range of 89 to 93 °C.

On to `CS(=O)c1nnc(Sc2cc(C(C)(C)C)c(O)c(C(C)(C)C)c2)s1` (stereo not drawn), for which the melting point is 162 to 164 °C.

Compound `N#Cc1nn(-c2c(Cl)cc(C(F)(F)F)cc2Cl)c(N)c1-c1cccc2ccccc12` returned a melting point of 208 °C.

In the case of `C[Si](C)(C)c1ccc(O)c(C(=O)C=C(O)c2ccc(C(=O)O)cc2)c1`, the melting point lay within 207 to 209 °C.

In turn, `C=CCN(CC=C)C(=O)C1CC(C)(C)NC(C)(C)C1` registered a melting point of 64 to 67 °C.

The compound `O=[N+]([O-])c1cc(F)c(N2CCC3(CC2)CO3)c(F)c1` displayed a melting point of 96 to 97 °C.

`O=C1C2CCN(CC2)C1Cc1cccnc1` (stereo not drawn) had a melting point of 95 °C.

Take `Fc1ccc(-c2cc(Cl)nc3c2CCCC3)cc1`: the melting point lay within 111 to 112 °C.

Regarding `CC(=O)OCc1cc(=O)c(Oc2ccc(Cl)cc2)c(-c2ccc(S(C)(=O)=O)cc2)o1`, the melting point came out at 115 °C.

On to `Fc1cccc(Nc2nc(Cl)nc(Cl)n2)c1`, for which the melting point came to 143 °C.

`CCOC(=O)Cc1ccc(NC(=O)C(COc2cccc(Cl)c2)NS(=O)(=O)c2ccc(F)cc2)cc1` (racemic) showed a melting point of 164 to 165 °C.

`N#CCCCCCn1nc(-c2c(-c3ccccc3)nn3ccccc23)ccc1=O`: the melting point was in the range of 120 to 122 °C.

Take `O=C(Cl)CC1(c2ccccc2)C(=O)Oc2ccc(Cl)cc21` (stereo not drawn): the melting point was 107 °C.

The compound `CC(C)n1cnc2c(Nc3cccc(Cl)c3)nc(Cl)nc21` yielded a melting point of 128 to 129 °C.

`O=C(O)Cc1ccc(OCCNC(=O)C2Cc3ccccc3N2S(=O)(=O)c2ccc(-c3cc(Cl)ccc3Cl)cc2)cc1` (stereo not drawn) showed a melting point of 80 to 86 °C.

`Cc1ccc(O)c(C(C)(O)c2ccccc2)c1` (stereo not drawn) yielded a melting point of 100 °C.

Take `COc1ccc(OC)c(C=C2CCn3c2nc2ccc(Cl)cc2c3=O)c1`: the melting point was 220 to 222 °C.

`O=c1ccc(-c2ccc(Oc3ccc4c(c3)CCN(C3CCC3)CC4)nc2)n[nH]1` returned a melting point of 215 to 220 °C.

Turning to `CC(=O)c1ccc(Nc2cc(C)nc(N)n2)cc1`, the melting point lay in the range of 194 to 196 °C.

Regarding `CC(=O)N(C)c1c(I)c(NC(=O)CS(=O)(=O)CC(=O)O)c(I)c(C(=O)O)c1I`, the melting point was over 300 °C.

`CCC1(c2cccs2)OCC(=O)Nc2ccc(-c3coc(C#N)c3)cc21` (stereo not drawn) displayed a melting point of 99 to 100 °C.

For the compound `CC(=O)Nc1cc(Br)ccc1S(C)(=O)=O`, the melting point fell in the range of 157 to 160 °C.

`CN(C)Cn1nc(-c2ccncc2)n(-c2ccccc2)c1=S`: the melting point lay in the range of 173 to 174 °C.

Turning to `Cc1c(Cc2cccc(C(F)(F)F)c2)oc2cccc(-c3cccc(C(=O)NCCO)c3)c12`, the melting point was in the range of 139 to 141 °C.

Take `Cc1ccc(C)c(CN2C(=O)c3ccccc3C2=O)c1`: the melting point was 148 to 150 °C.

As to `CCCCCCC(=N)NC(=S)Nc1ccc(Cl)cc1`, the melting point lay within 112 to 113 °C.

As for `O=c1[nH]c(=O)n(Cc2cccc(OCc3noc(-c4ccc(F)cc4)n3)c2)o1`, the melting point fell in the range of 147 to 148 °C.

With `O=c1[nH]cnc2cc[nH]c12`, the melting point was over 300 °C.

For `O=C1C=CC(=C(c2ccc3ccccc3c2)c2ccc3ccccc3c2)O1`, the melting point fell in the range of 138 to 140 °C.

As to `Cc1ccnc(CCOc2ccc(NC(=O)N(C)C)cc2)c1`, the melting point was 132 to 133 °C.

For the compound `CCOC(=O)c1nn(-c2ccc(Cl)cc2Cl)c(-c2ccc(Cl)cc2)c1C`, the melting point was determined as 124 °C.

For the compound `COC(=O)N=C(N)SC`, the melting point fell in the range of 72 to 77 °C.

The compound `COc1ccc(-c2cccc(C#N)n2)cc1` gave a melting point of 86.3 to 86.6 °C.

For `N#CC1CCN(C(c2ccccc2)(c2ccccc2)c2ccccc2)CC1`, the melting point turned out to be 206 °C.

Regarding `CCOC(=O)NNc1ccc(N(CC)CC(C)O)nn1` (stereo not drawn), the melting point lay within 160 to 162 °C.

`CN(C)CCN(C1CCS(=O)(=O)C1)S(=O)(=O)c1ccc(Nc2nccc(Nc3ccc(F)cc3)n2)cc1` (stereo not drawn) returned a melting point of 162 to 165 °C.

Consider `CC(C)n1nc(-c2nc(C(N)=S)c(N)nc2-c2ccccc2)ccc1=O`, for which the melting point was over 250 °C.

For the compound `CCCCCCNC1=NS(=O)(=O)c2cc(Cl)c(Cl)cc2N1`, the melting point lay within 282 to 286 °C.

`CCOP(=O)(OCC)C(CC(C(=O)Nc1ccccc1)C(=O)c1ccccc1)P(=O)(OCC)OCC` (stereo not drawn) registered a melting point of 104 to 105 °C.

As for `NS(=O)(=O)c1ncc2ccccn12`, the melting point lay within 179 to 180 °C.

`CCCCCCOc1ccc(C(=O)c2cccc(C(=O)O)c2)c(C)c1` yielded a melting point of 136 to 138 °C.

The compound `COC(=O)CC[C@@H](Cc1ccc(OCc2ccccc2)cc1)NC(=O)CCCCCCc1ccccc1` displayed a melting point of 94.8 to 95.9 °C.

The compound `CCN(CC)CCOc1ccc(C#Cc2ccc(OC)cc2)cc1` yielded a melting point of 59 to 60 °C.

In the case of `O=c1c2ccc(Cl)cc2nc2n1CS(=O)(=O)N2`, the melting point was over 300 °C.

In turn, `O=C1CCCC12CCn1c(cc3ccccc31)C2` (stereo not drawn) displayed a melting point of 128 to 130 °C.

In the case of `C[C@H]1CC[C@H]2C(C)(C)[C@@H](O)[C@@H](OS(=O)(=O)c3ccccc3)C[C@]23Oc2c(c(O)cc4c2CNC4=O)C[C@]13C`, the melting point lay within 142 to 144 °C.

Turning to `COc1cc2ncnc(N3CCN(C(=O)Nc4ccccc4)CC3)c2cc1OC`, the melting point lay in the range of 121 to 123 °C.

The compound `O=C(O)c1ccc(C=CC(=O)N2CCCCC2)cc1` gave a melting point of 257 °C.

Compound `O=C(CBr)c1ccc(Cl)c(Cl)c1Cl` gave a melting point of 44 to 46 °C.

As for `CCc1cc(=O)c2c([nH]1)CCCN2`, the melting point lay in the range of 206 to 209 °C.

`Nc1nc2cc(Cl)c(Cl)cc2nc1-c1cccs1` displayed a melting point of 235 to 237 °C.

Regarding `O=C(NC1(C(=O)O)CCCC1)C(CS)Cc1ccccc1` (stereo not drawn), the melting point was 165 to 167 °C.

Compound `ON1C=CN(c2ccccc2)N1` returned a melting point of 284 to 285 °C.

Take `CC(C)n1c(=O)sc2cc([N+](=O)[O-])ccc21`: the melting point fell in the range of 138 to 142 °C.

Regarding `CC(C)c1ccc(-c2csc(-c3cccc(C(=O)O)c3)n2)cc1`, the melting point was 206 to 208 °C.

Regarding `C=CCONC(CCC)=C1C(=O)C=C(C)OC1=O`, the melting point lay in the range of 52 to 54 °C.

Compound `C/C(=C\Cn1oc(=O)[nH]c1=O)c1cccc(OCc2nc(-c3ccc(OC(F)(F)F)cc3)oc2C)c1` returned a melting point of 145 to 146 °C.

With `NS(=O)(=O)c1ccc(-c2oc3c(Cl)ccc(O)c3c(=O)c2-c2ccc(F)cc2)cc1`, the melting point fell in the range of 251 to 252 °C.

Compound `Cc1c(NC(=O)c2ccc(-c3ccc(Cl)s3)cc2)ccc2cc(CN3CCCCCC3)cnc12` showed a melting point of 186 to 187 °C.

`COc1ccc(C(=O)Oc2ccc(C(=O)O)cc2C(=O)O)cc1C12CC3CC(CC(C3)C1)C2`: the melting point was in the range of 172 to 173 °C.

The compound `COc1ccc(CS[C@@H]2C[C@@H](COc3ccccc3)N(S(C)(=O)=O)C2)cc1` displayed a melting point of 92 to 94 °C.

In turn, `Cc1cc(C(=O)c2ccccc2C(F)(F)F)c(N)s1` displayed a melting point of 136 to 137 °C.

For the compound `NS(=O)(=O)c1cccc(-c2noc(-c3cnn4c(C(F)(F)F)cc(-c5ccc(Cl)cc5)nc34)n2)c1`, the melting point came to 247 °C.

In turn, `Cc1ccc(Cl)cc1N1C(=O)CN=C1SCc1ccccc1` had a melting point of 140 to 142 °C.

Regarding `CCCCCCc1ccc(OCCCCCC(=O)Nc2ccc(O)cc2)cc1O`, the melting point came out at 128 °C.

Turning to `COC(=O)c1nc(-c2ccc(Cl)c(OC)c2F)cc(NC(C)=O)c1O`, the melting point fell in the range of 168 to 172 °C.

Consider `Cn1c(=Nc2ccccc2)sc2ncccc2c1=O`, for which the melting point was in the range of 189 to 190 °C.

`CC(C)(C)OC(=O)N1CCN(C(=O)/C=C/c2ccc(Sc3ccc4c(c3)OCCO4)c([N+](=O)[O-])c2)CC1`: the melting point is 165 to 167 °C.

As for `CC(=O)OC[C@@](O)(c1ccc(F)cc1F)[C@H](C)c1ccncn1`, the melting point lay in the range of 102 to 104 °C.

`CCOC(=O)C(=NNc1ccccc1)C(C)=O` showed a melting point of 75 to 76 °C.

For the compound `C=CCNc1nc(N(CC=C)CC=C)nc2ccc([N+](=O)[O-])cc12`, the melting point was 167 to 168 °C.

Consider `COC(=O)/C=C/Cn1c(=O)c2cc(C(=O)NCc3ccc(OC)cc3)sc2n(C)c1=O`, for which the melting point was 169 to 171 °C.

`O=C1N(c2cc(Cl)cc(Cl)c2)C(=O)C2(Cc3ccc(Br)cc3)C[C@@H](c3ccccc3)CN12` (stereo partly drawn) gave a melting point of 124 °C.

`Cc1cc(Cl)cc(C(=O)NC(C)C)c1NC(=O)c1cc(Br)nn1-c1ncccc1Cl` showed a melting point of 159 to 161 °C.

In turn, `CCCNC(=S)c1ccc2c(c1)N(C(C)CN1CCCC1)c1ccccc1S2` (racemic) registered a melting point of 150 to 152 °C.

The compound `Cc1oc(-c2ccc(F)cc2)nc1COc1cccc(Cn2oc(=O)[nH]c2=O)c1` returned a melting point of 163 to 164 °C.

For the compound `CCCN(CCC)C(=O)CNc1cc(C)nc(-c2ccccc2)n1`, the melting point was 107 to 108 °C.

`O=C(O)c1cc2c(=O)n(-c3ccccc3)c3ccccc3n2c1` displayed a melting point of 304 to 306 °C.

As for `CC(Cl)C(=O)c1ncc(Cl)cc1F` (stereo not drawn), the melting point was in the range of 29 to 32 °C.

`CCOC(=O)C1=C(C(OCC)OCC)NC(C)=C(C(=O)OCc2ccccc2)C1c1ccccc1[N+](=O)[O-]` (stereo not drawn) registered a melting point of 103 to 104 °C.

As for `Cn1cc(CC(=O)O)c(OCc2ccc(OCc3csc(-c4ccccc4)n3)nc2)n1`, the melting point lay within 156 to 157 °C.

As to `O=c1ncc(Cl)cn1CCCl`, the melting point fell in the range of 167 to 168 °C.

The compound `C/C(=N\OC(=O)c1ccccn1)[C@H]1CC[C@H]2[C@@H]3CCC4=CC(=O)CC[C@]4(C)[C@H]3CC[C@]12C` returned a melting point of 172 to 174 °C.

Compound `CC(=O)Nc1ccc2c3c1c(=O)c(C(=O)O)cn3CCC2` returned a melting point of over 300 °C.

On to `Cc1cc(SC2=C(O)CC(CCc3csc(CO)c3)(C(C)C)OC2=O)c(C(C)(C)C)cc1CO` (stereo not drawn), for which the melting point was 76 to 80 °C.

Consider `O=[N+]([O-])c1ccc(-n2ccnn2)c(F)c1`, for which the melting point lay in the range of 123 to 124 °C.
